In patent publication US8435980B2 (AbbVie Inc., priority 2009, dated 2013):

biological target: T1, Cdc7 (BEV coexpressed huCDC7/DBF4) (Homo sapiens, UniProt O00311); test: Cdc7 enzyme inhibition assay ([33P]ATP, biotinylated peptide substrate, FlashPlate); type: biochemical; conditions: not given
T1 construct: made in house; host or cells: BEV (baculovirus expression vector) co-expression; insect cells are implied but no cell line is named
Description: Cdc7 (BEV coexpressed huCDC7/DBF4) is prepared internally. Cdc7 assays are conducted as follows with final concentrations as listed. […] Reactions are quenched after 1 hr by the addition of 90 μL stop buffer (50 mM EDTA, 2M NaCl). […] (Ki) for exemplary compounds.

T1 sequence (O00311 whole entry): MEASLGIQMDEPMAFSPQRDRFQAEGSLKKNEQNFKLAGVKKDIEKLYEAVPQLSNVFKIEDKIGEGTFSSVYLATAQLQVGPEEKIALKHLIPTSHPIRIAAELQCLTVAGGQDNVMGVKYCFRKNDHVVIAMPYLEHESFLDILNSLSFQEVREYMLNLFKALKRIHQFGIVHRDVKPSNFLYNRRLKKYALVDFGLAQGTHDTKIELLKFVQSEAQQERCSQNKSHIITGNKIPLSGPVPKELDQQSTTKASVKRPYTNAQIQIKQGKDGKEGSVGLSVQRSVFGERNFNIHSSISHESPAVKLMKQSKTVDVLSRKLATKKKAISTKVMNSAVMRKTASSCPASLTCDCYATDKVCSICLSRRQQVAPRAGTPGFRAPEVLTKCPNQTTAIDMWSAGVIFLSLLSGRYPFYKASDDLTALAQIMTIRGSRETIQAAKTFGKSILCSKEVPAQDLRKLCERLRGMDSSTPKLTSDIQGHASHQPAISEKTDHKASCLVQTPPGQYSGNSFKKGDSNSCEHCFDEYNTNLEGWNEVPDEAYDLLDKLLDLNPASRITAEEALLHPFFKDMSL
T1 sequence (Q9UBU7 whole entry partner): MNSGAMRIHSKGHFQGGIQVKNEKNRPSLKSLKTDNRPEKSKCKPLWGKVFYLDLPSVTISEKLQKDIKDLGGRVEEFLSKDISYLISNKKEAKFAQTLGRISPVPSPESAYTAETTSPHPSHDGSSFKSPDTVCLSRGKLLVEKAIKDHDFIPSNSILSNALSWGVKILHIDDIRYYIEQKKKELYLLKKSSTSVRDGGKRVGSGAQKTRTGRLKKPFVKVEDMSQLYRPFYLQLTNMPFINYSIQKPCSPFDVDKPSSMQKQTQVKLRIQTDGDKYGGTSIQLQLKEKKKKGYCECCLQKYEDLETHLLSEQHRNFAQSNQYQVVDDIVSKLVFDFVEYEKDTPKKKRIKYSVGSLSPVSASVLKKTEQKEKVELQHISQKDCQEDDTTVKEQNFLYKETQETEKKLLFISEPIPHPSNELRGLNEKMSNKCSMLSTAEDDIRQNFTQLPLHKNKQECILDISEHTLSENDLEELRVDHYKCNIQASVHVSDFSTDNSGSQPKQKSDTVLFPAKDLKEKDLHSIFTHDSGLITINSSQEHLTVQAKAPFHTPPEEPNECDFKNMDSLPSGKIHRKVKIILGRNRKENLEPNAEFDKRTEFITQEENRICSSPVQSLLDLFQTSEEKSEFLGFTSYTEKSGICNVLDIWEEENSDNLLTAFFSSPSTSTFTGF

`Clc1cc(-c2c[nH]c3ncccc23)cc(NCC2CCOCC2)n1` [Example 25, 6-chloro-4-(1H-pyrrolo[2,3-b]pyridin-3-yl)-N-(tetrahydro-2H-pyran-4-ylmethyl)pyridin-2-amine] was tested. Which Ki did it give?
The Ki was < 10 nM.

How did the Ki turn out when `FC1(F)CN(c2cc(-c3c[nH]c4ncccc34)cc(Cl)n2)C1` [Example 6, 3-[2-chloro-6-(3,3-difluoroazetidin-1-yl)pyridin-4-yl]-1-1H-pyrrolo[2,3-b]pyridine] was run?
The Ki was 10 to 100 nM.

How did the Ki turn out when `Clc1cc(-c2c[nH]c3ncccc23)cc(NCc2ccccc2)n1` [Example 2, N-Benzyl-6-chloro-4-(1H-pyrrolo[2,3-b]pyridin-3-yl)pyridin-2-amine] was run?
Its Ki is < 10 nM.

Which Ki does the source give for `CS(=O)(=O)NC1CCC(Nc2cc(-c3c[nH]c4ncccc34)cc(Cl)n2)CC1` (stereo not shown) [Example 21, N-(4-{[6-chloro-4-(1H-pyrrolo[2,3-b]pyridin-3-yl)pyridin-2-yl]amino}cyclohexyl)methanesulfonamide] here?
Its Ki is < 10 nM.

same assay, conditions: Table 2; Comparative Example lacking the chloro substituent versus the chloro Example

For `N#Cc1cc(-c2c[nH]c3ncccc23)cc(NC2CCCCC2)n1` [Comparative Example 5, 6-(cyclohexylamino)-4-(1H-pyrrolo[2,3-b]pyridin-3-yl)pyridine-2-carbonitrile, reference compound], which “Ki ratio comparisons (Ki Comparative Example/Ki Example)” value is on record?
The value was 9.

same assay, conditions: Table 3; enzyme inhibition data (Ki)

With `O=C(C1CC1)N1CCC(Nc2cc(-c3c[nH]c4ncccc34)cc(Cl)n2)CC1` [Example 126, (4-{[6-chloro-4-(1H-pyrrolo[2,3-b]pyridin-3-yl)pyridin-2-yl]amino}piperidin-1-yl)(cyclopropyl)methanone] as the compound, how does the Ki read?
The Ki was < 10 nM.

`CS(=O)(=O)N1CCC(C2CCC(Nc3cc(-c4c[nH]c5ncccc45)cc(Cl)n3)CC2)C1` (stereo not shown) [Example 199, 6-chloro-N-{4-[1-(methylsulfonyl)pyrrolidin-3-yl]cyclohexyl}-4-(1H-pyrrolo[2,3-b]pyridin-3-yl)pyridin-2-amine] was tested. Which Ki did it give?
The Ki was < 10 nM.

Which Ki does the source give for `Clc1cc(-c2c[nH]c3ncccc23)cc(NC2CCN(C3CCC3)CC2)n1` [Example 128, 6-chloro-N-(1-cyclobutylpiperidin-4-yl)-4-(1H-pyrrolo[2,3-b]pyridin-3-yl)pyridin-2-amine] here?
The Ki was < 10 nM.

Which Ki does the source give for `O=C(N[C@H]1CC[C@H](Nc2cc(-c3c[nH]c4ncccc34)cc(Cl)n2)CC1)C1CN(Cc2ccc3cc[nH]c3c2)C1` [Example 407, N-(trans-4-{[6-chloro-4-(1H-pyrrolo[2,3-b]pyridin-3-yl)pyridin-2-yl]amino}cyclohexyl)-1-(1H-indol-6-ylmethyl)azetidine-3-carboxamide] here?
Its Ki is < 10 nM.

How did the Ki turn out when `O=C(CN1CCN(C(=O)c2ccco2)CC1)N[C@H]1CC[C@H](Nc2cc(-c3c[nH]c4ncccc34)cc(Cl)n2)CC1` [Example 233, N-(trans-4-{[6-chloro-4-(1H-pyrrolo[2,3-b]pyridin-3-yl)pyridin-2-yl]amino}cyclohexyl)-2-[4-(furan-2-ylcarbonyl)piperazin-1-yl]acetamide] was run?
Its Ki is < 10 nM.

`COc1cnc2[nH]cc(-c3cc(Cl)nc(N[C@H]4CC[C@H](NC(=O)C(F)(F)F)CC4)c3)c2c1` [Example 430, N-(trans-4-{[6-chloro-4-(5-methoxy-1H-pyrrolo[2,3-b]pyridin-3-yl)pyridin-2-yl]amino}cyclohexyl)-2,2,2-trifluoroacetamide] was tested. Which Ki did it give?
The Ki was < 10 nM.

How did the Ki turn out when `O=S(=O)(N[C@H]1CC[C@H](Nc2nc(Cl)cc(-c3c[nH]c4ncccc34)n2)CC1)c1cccs1` [Example 482, N-(trans-4-{[4-chloro-6-(1H-pyrrolo[2,3-b]pyridin-3-yl)pyrimidin-2-yl]amino}cyclohexyl)thiophene-2-sulfonamide] was run?
Its Ki is < 10 nM.

Which Ki does the source give for `CN(C)c1ccc(Nc2cc(-c3c[nH]c4ncccc34)cc(Cl)n2)cc1` [Example 434, N′-[6-chloro-4-(1H-pyrrolo[2,3-b]pyridin-3-yl)pyridin-2-yl]-N,N-dimethylbenzene-1,4-diamine] here?
The Ki was < 10 nM.

`Clc1cc(-c2c[nH]c3ncccc23)nc(NC2CCCC(NC3CCC3)C2)n1` (stereo not shown) [Example 274, N-[4-chloro-6-(1H-pyrrolo[2,3-b]pyridin-3-yl)pyrimidin-2-yl]-N′-cyclobutylcyclohexane-1,3-diamine] was tested. Which Ki did it give?
The Ki was < 10 nM.

Which Ki does the source give for `Clc1cc(-c2c[nH]c3ncccc23)cc(Nc2ccc(N3CCCCC3)cc2)n1` [Example 420, 6-chloro-N-[4-(piperidin-1-yl)phenyl]-4-(1H-pyrrolo[2,3-b]pyridin-3-yl)pyridin-2-amine] here?
Its Ki is < 10 nM.

With `O=S(=O)(N[C@H]1CC[C@H](Nc2nc(Cl)cc(-c3c[nH]c4ncccc34)n2)CC1)c1ccsc1` [Example 481, N-(trans-4-{[4-chloro-6-(1H-pyrrolo[2,3-b]pyridin-3-yl)pyrimidin-2-yl]amino}cyclohexyl)thiophene-3-sulfonamide] as the compound, how does the Ki read?
The Ki was < 10 nM.

How did the Ki turn out when `CNCC(=O)N[C@H]1CC[C@H](Nc2cc(-c3c[nH]c4ncccc34)cc(Cl)n2)CC1` [Example 325, N-(trans-4-{[6-chloro-4-(1H-pyrrolo[2,3-b]pyridin-3-yl)pyridin-2-yl]amino}cyclohexyl)-N~2~-methylglycinamide] was run?
Its Ki is < 10 nM.

Which Ki does the source give for `CC(C)(CNC(=O)C1CC1)CNc1cc(-c2c[nH]c3ncccc23)cc(Cl)n1` [Example 124, N-(3-{[6-chloro-4-(1H-pyrrolo[2,3-b]pyridin-3-yl)pyridin-2-yl]amino}-2,2-dimethylpropyl)cyclopropanecarboxamide] here?
Its Ki is < 10 nM.

Which Ki does the source give for `O=C(CN1CCN(c2ccccn2)CC1)N[C@H]1CC[C@H](Nc2cc(-c3c[nH]c4ncccc34)cc(Cl)n2)CC1` [Example 142, N-(trans-4-{[6-chloro-4-(1H-pyrrolo[2,3-b]pyridin-3-yl)pyridin-2-yl]amino}cyclohexyl)-2-[4-(pyridin-2-yl)piperazin-1-yl]acetamide] here?
Its Ki is < 10 nM.

Which Ki does the source give for `NCCS(=O)(=O)NC1CCCC(Nc2cc(-c3c[nH]c4ncccc34)cc(Cl)n2)C1` (stereo not shown) [Example 145, 2-amino-N-(3-{[6-chloro-4-(1H-pyrrolo[2,3-b]pyridin-3-yl)pyridin-2-yl]amino}cyclohexyl)ethanesulfonamide] here?
The Ki was < 10 nM.

`CN(C)c1nc(Cl)cc(-c2c[nH]c3ncccc23)n1` [Example 269, 4-chloro-N,N-dimethyl-6-(1H-pyrrolo[2,3-b]pyridin-3-yl)pyrimidin-2-amine] was tested. Which Ki did it give?
Its Ki is < 10 nM.

`CCC(CC)NC1CCC(CC2CCC(Nc3cc(-c4c[nH]c5ncc(OC)cc45)cc(Cl)n3)CC2)CC1` (stereo not shown) [Example 425, 6-chloro-4-(5-methoxy-1H-pyrrolo[2,3-b]pyridin-3-yl)-N-(4-{[4-(pentan-3-ylamino)cyclohexyl]methyl}cyclohexyl)pyridin-2-amine] was tested. Which Ki did it give?
Its Ki is < 10 nM.

For `CN(C)CC(C)(C)CNc1cc(-c2c[nH]c3ncccc23)cc(Cl)n1` [Example 121, N′-[6-chloro-4-(1H-pyrrolo[2,3-b]pyridin-3-yl)pyridin-2-yl]-N,N,2,2-tetramethylpropane-1,3-diamine], which Ki is on record?
Its Ki is < 10 nM.

With `Cc1cccc(CN2CC(C(=O)N[C@H]3CC[C@H](Nc4cc(-c5c[nH]c6ncccc56)cc(Cl)n4)CC3)C2)c1C` [Example 406, N-(trans-4-{[6-chloro-4-(1H-pyrrolo[2,3-b]pyridin-3-yl)pyridin-2-yl]amino}cyclohexyl)-1-(2,3-dimethylbenzyl)azetidine-3-carboxamide] as the compound, how does the Ki read?
The Ki was < 10 nM.

Which Ki does the source give for `Clc1cc(-c2c[nH]c3ncccc23)cc(N[C@H]2CC[C@H](NC3CCN(C4CCC4)CC3)CC2)n1` [Example 361, trans-N-[6-chloro-4-(1H-pyrrolo[2,3-b]pyridin-3-yl)pyridin-2-yl]-N′-(1-cyclobutylpiperidin-4-yl)cyclohexane-1,4-diamine] here?
The Ki was < 10 nM.

For `Clc1cc(-c2c[nH]c3ncccc23)cc(NC2CCN(C3CCC(NC4CCC4)CC3)CC2)n1` (stereo not shown) [Example 200, 6-chloro-N-{1-[4-(cyclobutylamino)cyclohexyl]piperidin-4-yl}-4-(1H-pyrrolo[2,3-b]pyridin-3-yl)pyridin-2-amine], which Ki is on record?
The Ki was < 10 nM.

For `N#Cc1cnc2[nH]cc(-c3cc(Cl)nc(NC4CCCCC4)c3)c2c1` [Example 201, 3-[2-chloro-6-(cyclohexylamino)pyridin-4-yl]-1-1H-pyrrolo[2,3-b]pyridine-5-carbonitrile], which Ki is on record?
Its Ki is 10 to 100 nM.

For `NCCS(=O)(=O)N[C@H]1CC[C@H](Nc2cc(-c3c[nH]c4ncccc34)cc(Cl)n2)CC1` [Example 179, 2-amino-N-(trans-4-{[6-chloro-4-(1H-pyrrolo[2,3-b]pyridin-3-yl)pyridin-2-yl]amino}cyclohexyl)ethanesulfonamide], which Ki is on record?
The Ki was < 10 nM.

For `O=S(=O)(NC1CCC(Nc2cc(-c3c[nH]c4ncccc34)cc(Cl)n2)CC1)c1cccnc1` (stereo not shown) [Example 54, N-(4-{[6-chloro-4-(1H-pyrrolo[2,3-b]pyridin-3-yl)pyridin-2-yl]amino}cyclohexyl)pyridine-3-sulfonamide], which Ki is on record?
Its Ki is < 10 nM.

How did the Ki turn out when `Fc1ccc(CN2CCC(C3CCC(Nc4cc(-c5c[nH]c6ncccc56)cc(Cl)n4)CC3)C2)cc1` (stereo not shown) [Example 198, 6-chloro-N-{4-[1-(4-fluorobenzyl)pyrrolidin-3-yl]cyclohexyl}-4-(1H-pyrrolo[2,3-b]pyridin-3-yl)pyridin-2-amine] was run?
Its Ki is < 10 nM.

How did the Ki turn out when `O=C(C1CC1)N1CCCC(Nc2cc(-c3c[nH]c4ncccc34)cc(Cl)n2)C1` (stereo not shown) [Example 102, (3-{[6-chloro-4-(1H-pyrrolo[2,3-b]pyridin-3-yl)pyridin-2-yl]amino}piperidin-1-yl)(cyclopropyl)methanone] was run?
The Ki was < 10 nM.

For `Clc1cc(-c2c[nH]c3ncccc23)cc(Nc2ccc3c(c2)CCC3)n1` [Example 435, 6-chloro-N-(2,3-dihydro-1H-inden-5-yl)-4-(1H-pyrrolo[2,3-b]pyridin-3-yl)pyridin-2-amine], which Ki is on record?
Its Ki is < 10 nM.

With `Clc1cc(-c2c[nH]c3ncccc23)cc(NC2CCCC(NCc3cccnc3)C2)n1` (stereo not shown) [Example 67, N-[6-chloro-4-(1H-pyrrolo[2,3-b]pyridin-3-yl)pyridin-2-yl]-N′-(pyridin-3-ylmethyl)cyclohexane-1,3-diamine] as the compound, how does the Ki read?
Its Ki is < 10 nM.

`O=C(NC1CCCC(Nc2cc(-c3c[nH]c4ncccc34)cc(Cl)n2)C1)C1CCNCC1` (stereo not shown) [Example 344, N-(3-{[6-chloro-4-(1H-pyrrolo[2,3-b]pyridin-3-yl)pyridin-2-yl]amino}cyclohexyl)piperidine-4-carboxamide] was tested. Which Ki did it give?
The Ki was < 10 nM.
